# Assay results from patent publication US20030195168A1, “Therapeutic agents - III” (priority 2000, published 2003).
# Assays:
# [1] = test system: HIV-strain pNL4-3; assay: HIV-1 replication in acutely infected PBMC (CA-p24 ELISA); format: cell-based
# Protocol: Experiments were conducted to assess the effect of the compounds of the instant invention on HIV-1 replication in acutely infected T cells. Peripheral blood mononuclear cells (PBMC) were obtained from non-HIV-1, non-HIV-2, non-Hepatitis B/C infected donors, stimulated with phytohemagglutinin-M and grown in culture media supplemented with 10 U/mL interleukin-2. The activated PBMC were infected with […] (Low Titre) and 100 ng (High Titre) of CA-p24 equivalents of the HIV-strain pNL4-3. Cells were infected for two hr after which, the virus was removed and the cells were washed with culture media. Equivalent numbers of cells were seeded into 24 well plates and compounds were added to the cultured cells that included: TPA at 8 riM and 80 nM, Ingenol at 280 nM, PEP003 at 500 nM, 50 nM and 5 nM, or PEP004 at dilutions of 1×10^4 and 1×10^5 from the stock (final concentrations). In addition, uninfected activated PBMC were grown in the presence of TPA (80 nM), Ingenol (280 nM), PEP003 (500 nM) and PEP004 (1×10^4 dilution). Other cultures were neither infected nor treated with any compound, or infected but not treated with any compound. Supernatant was removed from each culture at day 0, 3, 7, and 10. The amount of HIV-1 CA-p24 was determined using a commercially available ELISA assay. Three independent experiments were performed.
# [2] = test system: latently HIV-1 infected cell line (U1); assay: Activation of latent HIV from U1 cells (p24 ELISA); format: cell-based, HIV-1 LAI strain; conditions: 20 hr, FIG. 7
# Excerpt: However, the regimen is very burdensome, requiring strict adherence to prevent a recurrence of viraemia. Long-lived cells […], such as CD4^+ cells, act as a major latent reservoir and enable the virus to avoid anti-retroviral chemotherapy or immune system surveillance. There is, therefore, an urgent need to find an agent which activates latent virus from the infected cells. Activated virus could then be killed by aggressive anti-retroviral chemotherapy and it has been hypothesized that immune system surveillance could also be improved under these conditions. Such an agent could have utility in other disease states in which virus is sequestered in infected cells, e.g. herpes infections. Anti-cancer agents have been widely investigated as potential anti-HIV agents. […] However, PMA is a known tumor promoter. A latently HIV-1 infected cell line (U1), derived from the promonocytic cell line U937 after infection with HIV-1 LAI strain, was used in these experiments. In the absence of activation, no or little virus (measured as p24 production) is produced by the U1 cell line. […]
# Supernatants were collected and viral replication monitored by determination of the amounts of HIV p24 gag protein in the culture supernatants by ELISA, using a NEN Life Science HIV-1 p24 ELISA kit. p24 values were calculated from OD values using a standard curve.
# [3] = test system: Peripheral blood mononuclear cells (PBMC); assay: Respiratory burst (H2O2) in PBMC, DCFH-DA flow cytometry; format: cell-based; conditions: 15 min at 37° C.; granulocytes, monocytes, lymphocytes
# Protocol: Experiments were also carried out using 2′,7′-dichlorofluorescein diacetate (DCFH-DA) to measure the production of H2O2.(J P Robinson, Oxidative burst methods, in Handbook of Flow Cytometry Methods, Wiley-Liss Inc, pp147-149, 1993). H2O2 oxidizes the non-fluorescent probe (DCFH-DA) to a fluorescent probe that can then be detected by a flow cytometer. Peripheral blood mononuclear cells (PBMC) were extracted from a donor blood sample by lysis of heparinized blood and used in a suspension of 1×10^6/mL of phosphate buffer, pH 7.3. The cells were then incubated with DCFH-DA (1 μL/mL of 20 mM stock) for 15 minutes to allow it to be taken up and trapped by hydrolysis with cellular esterases. The cells were then stimulated by test compounds for 15 min at 37° C. Controls included in the experiment were unloaded control (cells with no DCFH-DA) and loaded control (cells with DCFH-DA, but no stimulation). These were used to monitor the non-specific oxidation of unstimulated cells. The cells were then analyzed on the flow cytometer (excitation at 488 nm, emission at 525±20 nm), gating each sample for individual cell populations-granulocytes, monocytes and lymphocytes (Table 3).
structure (smiles),measurement,setting,value
"CCCCCCCCCCCCCC(=O)O[C@@H]1[C@@H](C)[C@@]2(O)[C@@H](C=C(CO)C[C@]3(O)C(=O)C(C)=C[C@@H]23)C2C(C)(C)[C@@]21OC(C)=O (single isomer, unassigned) [TPA]",reduction of HIV-1 replication rate,[1]; 8 nM,~38%
same,reduction of HIV-1 replication rate,[1]; 80 nM,~98%
same,activation of HIV from U1 cells (p24 production),[2],activated HIV from U1 cells
same,"induction of a respiratory burst (H2O2, DCFH-DA)",[3],respiratory burst seen
